Experimental data as given in EP0280603A1, “Absolute S confirmation enantiomers of amide derivatives of 3-aminoquinuclidine, process for their preparation and their therapeutical use” (DELALANDE S.A., priority 1987, dated 1988).

How the values were obtained:
[1] = tested on: vomissements induits par le cisplatine; assay: Oral antiemetic activity against cisplatin-induced vomiting in the dog; type: in vivo, chien; conditions: for VOMISSEMENTS % DE DIMINUTION EN NOMBRE / VOMISSEMENTS % DE DIMINUTION EN TOUT OU RIEN / VOMISSEMENTS NOMBRE MOYEN: 6 h observation, 4 dogs; for VOMISSEMENTS NOMBRE MOYEN: control 10,8
Excerpt: A titre d'exemple, on étudie ci-après l'activité antiémétique par voie orale du chlorhydrate du N-(quinuclidinyl-3) amino-4 chloro-5 méthoxy-2 benzamide, sous la forme du mélange racémique (code MD 780209), de l'énantiomère lévogyre de configuration S (code MD 200054) et de l'énantiomère dextrogyre de configuration R (code MD 200051), vis-à-vis des vomissements induits par le cisplatine chez le chien.
La méthode est dérivée de celle décrite par J.A. GYLYS et coll. (Res. Commun. Chem. Pathol. Pharmacol. 1979, 23, n° 1, p. 61-68). Les vomissements sont induits par injection intraveineuse de cisplatine (DCI) à la dose de 3 mg/kg chez des chiens tout-venants, mâle ou femelle, de poids compris entre 10 et 16 kg, à la diète hydrique depuis 24 heures.
Les composés à tester sont administrés par voie orale 60 minutes après l'injection de cisplatine.
Les animaux sont alimentés 1 h 30 après le traitement. La durée d'observation est de 6 heures après l'injection de cisplatine.

[2] = Side effects and toxicity at the active doses (no method described); type: in vivo; conditions: in words, compared with the dextrorotatory enantiomer
[3] = dog, 15 μ g/kg oral 60 min after cisplatin 3 mg/kg i.v.
[4] = dog, 7,5 μ g/kg oral 60 min after cisplatin 3 mg/kg i.v.
[5] = dog, 30 μ g/kg oral 60 min after cisplatin 3 mg/kg i.v.

For COc1cc(N)c(Cl)cc1C(=O)NC1CN2CCC1CC2 (racemic) [MD 780209, N-(quinuclidinyl-3) amino-4 chloro-5 méthoxy-2 benzamide, reference compound], the “VOMISSEMENTS % DE DIMINUTION EN NOMBRE” value [1, 3] was 81,4%, the “VOMISSEMENTS % DE DIMINUTION EN TOUT OU RIEN” value [1, 3] was 25% and the “VOMISSEMENTS NOMBRE MOYEN” value [1, 3] was 2.
In the case of COc1cc(N)c(Cl)cc1C(=O)N[C@@H]1CN2CCC1CC2 [MD 200054, N-(quinuclidinyl-3) amino-4 chloro-5 méthoxy-2 benzamide], the “VOMISSEMENTS % DE DIMINUTION EN NOMBRE” value [1, 4] is reported as 95,3%, the “VOMISSEMENTS % DE DIMINUTION EN TOUT OU RIEN” value [1, 4] is reported as 75% and the “VOMISSEMENTS NOMBRE MOYEN” value [1, 4] is reported as 0,5. For the same compound, the “inhiber les vomissements induits par des drogues anticancéreuses telles que le cisplatine” value ([1]; in words, compared with the antipode MD 200051 and the corresponding racemate) was “beaucoup plus actif” and the effets secondaires [2] was “moins d'effets secondaires”.
With COc1cc(N)c(Cl)cc1C(=O)N[C@H]1CN2CCC1CC2 [MD 200051, N-(quinuclidinyl-3) amino-4 chloro-5 méthoxy-2 benzamide] the “VOMISSEMENTS % DE DIMINUTION EN NOMBRE” value [1, 5] was 34,9%, the “VOMISSEMENTS % DE DIMINUTION EN TOUT OU RIEN” value [1, 5] was 0% and the “VOMISSEMENTS NOMBRE MOYEN” value [1, 5] was 7.
